Experimental data from the METLIN SMRT retention time set (Domingo-Almenara et al. 2019).

Test: gradient 5% acetonitrile 3 min, to 50% in 2 min, to 85% in 15 min, held 3 min, 100 µL/min
Settings: column: Zorbax Extend-C18 2.1 x 50 mm; eluents: water / acetonitrile, 0.1% formic acid
Procedure, shortened: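 Retention times of pure standards were taken from adduct peaks that were selected by computer and manually inspected. Over 3 months, mixtures of ~100 molecules were run by HPLC–quadrupole time-of-flight mass spectrometry in positive and negative ionization mode. The Zorbax Extend-C18 column (2.1 × 50 mm, 1.8 μm) ran at 100 μL/min in water and acetonitrile, each containing 0.1% formic acid, with 40 μL dead volume and 900 μL dwell volume.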

## Cc1nn(C(C)C(=O)NCCCOC(C)C)c(=O)c2nn(-c3ccccc3)c(C)c12 (stereo unspecified)
  RP-LC retention time: 771 s

## CCCn1ncc(N2CCC(C(=O)Nc3ccc(OC)c(OC)c3)CC2)cc1=O
  RP-LC retention time: 693 s

## N#Cc1cccc(CN2CCCCC2c2nncn2CC2CC2)c1 (stereo unspecified)
  RP-LC retention time: 618 s

## CCOCCCNC(=O)c1nc(Nc2ccc(CC)cc2)c2ccccc2n1
  RP-LC retention time: 813 s

## CCc1ccc(S(=O)(=O)N2CC(c3nc(-c4ccccc4)nn3C)C2)cc1
  RP-LC retention time: 1030 s

## O=C(Cc1c[nH]c2ncccc12)NC1CCN(Cc2ccccc2)CC1
  RP-LC retention time: 736 s

## C=C(C)Cn1c(C2CC(=O)N(c3ccccc3Br)C2)nc2ccccc21 (stereo unspecified)
  RP-LC retention time: 708 s

## CCN(c1ccccc1)S(=O)(=O)c1ccc(C(=O)Nc2cc(C)nn2C(C)C)cc1
  RP-LC retention time: 858 s

## CC(C)N1C(=O)C2(CCCC2)C1C(=O)NCC1CCCCC1 (stereo unspecified)
  RP-LC retention time: 775 s

## Cn1c(=O)c2c(nc3n(CCN4CCOCC4)c(C(C)(C)C)cn23)n(C)c1=O
  RP-LC retention time: 552 s

## O=C(Cc1c[nH]c2ccccc12)Nc1cc(-c2ccccn2)no1
  RP-LC retention time: 754 s

## CC(C)n1cnc2cc(CNC(=O)c3cccs3)ccc21
  RP-LC retention time: 608 s

## Cc1ccc(C2=NN3C(C2)c2ccccc2OC32CCCC2)o1 (stereo unspecified)
  RP-LC retention time: 942 s

## CSc1cccc(NC(=O)C2CCN(C(=O)c3cc(-c4ccncc4)n[nH]3)CC2)c1
  RP-LC retention time: 637 s

## CC(C)NCc1ccc(-c2ccc(F)cc2)o1
  RP-LC retention time: 647 s

## O=C(Nc1ccc(-c2nc(-c3ccc(Cl)cc3)no2)cc1)c1cccs1
  RP-LC retention time: 1240 s

## Cc1ccc(NC(=O)CSC2=C(C#N)C(c3cccs3)CC(=O)N2)cc1Cl (stereo unspecified)
  RP-LC retention time: 915 s

## CSc1ncccc1C(=O)N(Cc1cccs1)Cc1cccn1C
  RP-LC retention time: 904 s

## O=C(O)C1CCN(S(=O)(=O)C2CC2)CC1
  RP-LC retention time: 585 s

## CC1(C)Cc2c(C#N)c(N3CCN(C(=O)c4ccc([N+](=O)[O-])cc4)CC3)nc(-c3ccccc3)c2CO1
  RP-LC retention time: 1140 s

## COc1ccc(C(=O)N2CCC(n3c(-c4ccco4)nc4cccnc43)C2)cn1 (stereo unspecified)
  RP-LC retention time: 643 s

## CCn1ccc2c(cc(C(=O)Nc3ccc(C)c(F)c3)n2C)c1=O
  RP-LC retention time: 830 s

## COc1c(C(=O)NCCN2CCCCC2C)sc2cc(Cl)ccc12 (stereo unspecified)
  RP-LC retention time: 710 s

## CCOC(=O)C1CCN(C(=O)C2CCCN(c3ccc(-c4ccc(C)c(C)c4)nn3)C2)CC1 (stereo unspecified)
  RP-LC retention time: 761 s

## Cc1ccnc(N2CCCC(C(=O)NC3CCCC3)C2)n1 (stereo unspecified)
  RP-LC retention time: 674 s

## Clc1ccc(C2Cn3nnc(-c4nc(-c5cccc(Cl)c5)no4)c3CO2)cc1 (stereo unspecified)
  RP-LC retention time: 1310 s

## COc1ccc(N2CC(c3noc(-c4ccccc4)n3)CC2=O)cc1 (stereo unspecified)
  RP-LC retention time: 919 s

## COc1cccc(COC(=O)C2=CN(C)S(=O)(=O)N=C2C)c1
  RP-LC retention time: 921 s

## CCc1nnc2nc(N3CCN(C(=O)c4ccc(Br)cc4)CC3)cc(C)n12
  RP-LC retention time: 638 s

## O=C(NCCC1=CCCCC1)C1CCCN(c2nc3ccsc3c(=O)n2Cc2ccc(F)cc2)C1 (stereo unspecified)
  RP-LC retention time: 1090 s

## CCN1CCn2cc(S(=O)(=O)NCc3ccccc3Cl)cc2C1=O
  RP-LC retention time: 713 s

## c1cn(-c2cc(N3CCSCC3)ncn2)cn1
  RP-LC retention time: 591 s

## CCc1ccc(S(=O)(=O)c2cnc(N3CCC4(CC3)OCCO4)nc2N)cc1
  RP-LC retention time: 944 s

## COc1cccc(CN2N=C(C(=O)N3CCOCC3)S(=O)(=O)c3cc(Cl)ccc32)c1
  RP-LC retention time: 887 s

## Cc1cc(NC(=O)CSc2nnc(Cc3ccccc3)o2)no1
  RP-LC retention time: 716 s

## CCOc1ccc(-n2nc(CO)c(C(=O)NC3CCCC3)n2)cc1
  RP-LC retention time: 1020 s

## COc1ccc(S(=O)(=O)N2CCc3nn(C)c(=O)n3CC2)cc1Cl
  RP-LC retention time: 710 s

## CN(CCc1noc(COc2ccc(F)cc2)n1)C(=O)Nc1ccc(Br)cc1
  RP-LC retention time: 980 s

## COc1ccc(-c2csc(Nc3ccc(C)cc3)n2)cc1
  RP-LC retention time: 1190 s

## Cc1ccc(-c2ccc(=O)n(Cc3nc(-c4cccs4)no3)n2)cc1
  RP-LC retention time: 990 s

## O=C(NCC1CCN(c2ncccn2)CC1)c1ccc(Br)o1
  RP-LC retention time: 647 s

## CCc1ccc(CNC(=O)C2CCCN(c3nnc(C)c4c(C)n(-c5ccccc5)nc34)C2)cc1 (stereo unspecified)
  RP-LC retention time: 795 s

## O=C(NCc1cccc(Cl)c1)C1CCCN(c2cnc3nccnc3c2)C1 (stereo unspecified)
  RP-LC retention time: 749 s

## CCCn1ccc2sc(C)c(C(=O)NC(C)c3ccc(F)cc3)c2c1=O (stereo unspecified)
  RP-LC retention time: 994 s

## CCn1cc(CCNC(=O)Nc2ccc(Br)cc2)c2cccnc21
  RP-LC retention time: 802 s

## CCc1noc2cc(-c3ccccc3)n(C)c(=O)c12
  RP-LC retention time: 950 s
